Assay results as given in ChEMBL document CHEMBL1130875, “Conformationally constrained analogues of diacylglycerol (DAG). 14. Dissection of the roles of the sn-1 and sn-2 carbonyls in DAG mimetics by isopharmacophore replacement” (Bioorg Med Chem Lett, 1998).

Biological target: Protein kinase C alpha type (Homo sapiens, UniProt P17252)
Assay: Displacement of [20-3H]phorbol-12,13-dibutyrate from a recombinant PK-C alpha

Ki [nM] | Compound
823 | CCCCCCCCCCCCC/C=C1\CC(CO)(COS(C)(=O)=O)OC1=O (centres undefined)
90.7 | CCCCCCCCCCCCCCS(=O)(=O)OCC1(CO)CCC(=O)O1 (centres undefined)
1040 | CCCCCCCCCCCCCC(=O)OCC1(CO)CCS(=O)(=O)O1 (centres undefined)
320 | CCCCCCCCCCCCC/C=C1\CC(CO)(COC(C)=O)OS1(=O)=O (centres undefined)
